Measurements reported in ChEMBL document CHEMBL1201862, “PubChem BioAssay data set” (2004).
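Results reflect a 48-hour exposure of cells in 96-well plates to compound at five concentrations. At the GI50, growth is halved.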 Calls of active or inactive are those of the source. No stated cut-off is given here; in the data, active = GI50 up to about 1.1 µM and inactive = higher.

Assays:
Test in all cases: NCI tumour cell line growth inhibition, 48 h
LOX IMVI = system: LOX IMVI
SK-MEL-5 = system: SK-MEL-5
K562 = system: K562
SW-620 = system: SW-620
NCI-H226 = system: NCI-H226
786-0 = system: 786-0
HOP-62 = system: HOP-62
MOLT-4 = system: MOLT-4
OVCAR-3 = system: OVCAR-3
SF-268 = system: SF-268
ACHN = system: ACHN
MDA-N = system: MDA-N
OVCAR-4 = system: OVCAR-4
UO-31 = system: UO-31
SK-MEL-28 = system: SK-MEL-28
KM12 = system: KM12
HCC 2998 = system: HCC 2998
Malme-3M = system: Malme-3M
UACC-62 = system: UACC-62
U-251 = system: U-251

| SMILES | GI50 (LOX IMVI) | GI50 (SK-MEL-5) | GI50 (K562) | GI50 (SW-620) | GI50 (NCI-H226) | GI50 (786-0) | GI50 (HOP-62) | GI50 (MOLT-4) | GI50 (OVCAR-3) | GI50 (SF-268) | GI50 (ACHN) | GI50 (MDA-N) | GI50 (OVCAR-4) | GI50 (UO-31) | GI50 (SK-MEL-28) | GI50 (KM12) | GI50 (HCC 2998) | GI50 (Malme-3M) | GI50 (UACC-62) | GI50 (U-251) |
| --- | --- | --- | --- | --- | --- | --- | --- | --- | --- | --- | --- | --- | --- | --- | --- | --- | --- | --- | --- | --- |
| Cc1cc(O)c(C(C)C)cc1NC(=O)Nc1cccc2ccccc12 | 19.8 µM (inactive) | 12.5 µM (inactive) | 34.6 µM (inactive) | 27.9 µM (inactive) | 19.5 µM (inactive) | 15.3 µM (inactive) | 16.4 µM (inactive) | 33.8 µM (inactive) | 16 µM (inactive) | 17.3 µM (inactive) | 14.6 µM (inactive) | 12.7 µM (inactive) | 6.43 µM (inactive) | 17.1 µM (inactive) | 23.2 µM (inactive) | 15.7 µM (inactive) | 18.8 µM (inactive) | 19.5 µM (inactive) | 13 µM (inactive) | 17.2 µM (inactive) |
| CCOC(=O)C(C(=O)OCC)C1C=CCC2c3ccccc3COCC21 (stereo not given) | 44.2 µM (inactive) | 19.1 µM (inactive) | 41.9 µM (inactive) | 52.7 µM (inactive) | 73.8 µM (inactive) | > 100 µM (inactive) | > 100 µM (inactive) | 40.9 µM (inactive) | 65.5 µM (inactive) | 67.5 µM (inactive) | 40.2 µM (inactive) | 40.7 µM (inactive) | 28.6 µM (inactive) | 43.9 µM (inactive) | 55.7 µM (inactive) | 33.6 µM (inactive) | 52.5 µM (inactive) | 31.7 µM (inactive) | 26.1 µM (inactive) | 57.9 µM (inactive) |
| c1ccc([P+](Cc2ccc(C[P+](c3ccccc3)(c3ccccc3)c3ccccc3)cc2)(c2ccccc2)c2ccccc2)cc1 | 14.6 µM (inactive) | 27.2 µM (inactive) | 9.66 µM (inactive) | 72.4 µM (inactive) | > 100 µM (inactive) | 47.5 µM (inactive) | 69.5 µM (inactive) | > 100 µM (inactive) | 27.7 µM (inactive) | > 100 µM (inactive) | > 100 µM (inactive) | 31 µM (inactive) | 48.1 µM (inactive) | 18.4 µM (inactive) | 67.9 µM (inactive) | 41.8 µM (inactive) | 91 µM (inactive) | 52.7 µM (inactive) | 44.2 µM (inactive) | 21.2 µM (inactive) |
| CC1OC(OC2C(OC(=O)[C@]34CCC(C)(C)C[C@H]3C3=CC[C@@H]5[C@@]6(C)CC[C@H](OC7OC(C(=O)O)C(O)C(O)C7O)C(C)(C)[C@@H]6CC[C@@]5(C)[C@]3(C)C[C@H]4O)OCC(O)C2O)C(O)C(OC2OCC(O)(CO)C2O)C1OC1OCC(O)C(O)C1O (stereo not given in full) | 13.7 µM (inactive) | 14.8 µM (inactive) | 10.3 µM (inactive) | 10.9 µM (inactive) | 10.9 µM (inactive) | 12.1 µM (inactive) | 16.1 µM (inactive) | 13.6 µM (inactive) | 14 µM (inactive) | 17.9 µM (inactive) | 5.15 µM (inactive) | 4.31 µM (inactive) | 10.5 µM (inactive) | 2.92 µM (inactive) | 4.49 µM (inactive) | 4.36 µM (inactive) | 1.81 µM (inactive) | 11.6 µM (inactive) | 16 µM (inactive) | 9.64 µM (inactive) |
| C=C1C(=O)OC2C(C)C3C=CC(=O)[C@@]3(C)C(OC(=O)/C(C)=C/C)C1[C@@H]2OC(C)=O (stereo not given in full) | 0.243 µM (active) | 1.46 µM (inactive) | 0.374 µM (active) | 0.257 µM (active) | 1.73 µM (inactive) | 0.231 µM (active) | 1.25 µM (inactive) | 0.334 µM (active) | 0.26 µM (active) | 0.673 µM (active) | 0.589 µM (active) | 0.252 µM (active) | 0.822 µM (active) | 1.21 µM (inactive) | 0.593 µM (active) | 1.46 µM (inactive) | 1.75 µM (inactive) | 0.221 µM (active) | 0.344 µM (active) | 1.15 µM (inactive) |
| C=C1CC2(CC(c3ccccc3Cl)OC(c3ccccc3Cl)C2)OC1=O (stereo not given) | 1.38 µM (inactive) | 4.3 µM (inactive) | 2.26 µM (inactive) | 1.98 µM (inactive) | 8.69 µM (inactive) | 2 µM (inactive) | 8.05 µM (inactive) | 2.4 µM (inactive) | 2.91 µM (inactive) | 2.27 µM (inactive) | 4.51 µM (inactive) | 1.87 µM (inactive) | 3.9 µM (inactive) | 5.89 µM (inactive) | 1.87 µM (inactive) | 2.33 µM (inactive) | 3.52 µM (inactive) | 3.57 µM (inactive) | 1.94 µM (inactive) | 8.07 µM (inactive) |
| CCOC(=O)C1CCC/C1=N\NC(=N)N.Cc1cc(O)c(C(C)C)cc1S(=O)(=O)O (stereo not given) | > 100 µM (inactive) | > 100 µM (inactive) | > 100 µM (inactive) | > 100 µM (inactive) | > 100 µM (inactive) | > 100 µM (inactive) | > 100 µM (inactive) | > 100 µM (inactive) | > 100 µM (inactive) | > 100 µM (inactive) | > 100 µM (inactive) | > 100 µM (inactive) | > 100 µM (inactive) | > 100 µM (inactive) | > 100 µM (inactive) | > 100 µM (inactive) | > 100 µM (inactive) | > 100 µM (inactive) | > 100 µM (inactive) | > 100 µM (inactive) |
| Cc1sc2nc3n(c(=O)c2c1C)N=CN(c1ccccc1)C3 | > 100 µM (inactive) | > 100 µM (inactive) | > 100 µM (inactive) | > 100 µM (inactive) | > 100 µM (inactive) | 15.8 µM (inactive) | 20.4 µM (inactive) | > 100 µM (inactive) | 19.4 µM (inactive) | 23.4 µM (inactive) | 59.3 µM (inactive) | > 100 µM (inactive) | 30.1 µM (inactive) | > 100 µM (inactive) | > 100 µM (inactive) | > 100 µM (inactive) | 60.5 µM (inactive) | 32 µM (inactive) | > 100 µM (inactive) | 52.4 µM (inactive) |
| C=CCN1CC2CN=NC2(C#N)C1 (stereo not given) | > 100 µM (inactive) | > 100 µM (inactive) | > 100 µM (inactive) | > 100 µM (inactive) | > 100 µM (inactive) | > 100 µM (inactive) | > 100 µM (inactive) | > 100 µM (inactive) | > 100 µM (inactive) | > 100 µM (inactive) | > 100 µM (inactive) | > 100 µM (inactive) | > 100 µM (inactive) | > 100 µM (inactive) | > 100 µM (inactive) | > 100 µM (inactive) | > 100 µM (inactive) | > 100 µM (inactive) | > 100 µM (inactive) | > 100 µM (inactive) |
| c1ccc2c(c1)CCN1CCc3ccccc3C1C2 (stereo not given) | 35.1 µM (inactive) | 17.7 µM (inactive) | 31.2 µM (inactive) | 64.6 µM (inactive) | 23.6 µM (inactive) | 25.1 µM (inactive) | 56.2 µM (inactive) | 40.4 µM (inactive) | 99.1 µM (inactive) | 32.2 µM (inactive) | 77.6 µM (inactive) | 12.4 µM (inactive) | > 100 µM (inactive) | 18.1 µM (inactive) | 59.6 µM (inactive) | 52.1 µM (inactive) | 31.4 µM (inactive) | > 100 µM (inactive) | 29.7 µM (inactive) | 38.4 µM (inactive) |
| COc1cc(OC)cc(C(=O)NC2=C(Cl)C(=O)c3ccccc3C2=O)c1 | 1.99 µM (inactive) | 2.04 µM (inactive) | 0.798 µM (active) | 1.01 µM (active) | 3.3 µM (inactive) | 2.96 µM (inactive) | 12.8 µM (inactive) | 1.67 µM (inactive) | 1.88 µM (inactive) | 6.12 µM (inactive) | 0.78 µM (active) | 1.91 µM (inactive) | 1.79 µM (inactive) | 3.15 µM (inactive) | 2.96 µM (inactive) | 1.62 µM (inactive) | 3.48 µM (inactive) | 1.74 µM (inactive) | 0.361 µM (active) | 1.94 µM (inactive) |
| O=P(O)(O)CN1CCNCCN(CP(=O)(O)O)CC1 | 25.9 µM (inactive) | 14 µM (inactive) | 6.32 µM (inactive) | 19.3 µM (inactive) | > 38.5 µM (inactive) | 23 µM (inactive) | > 100 µM (inactive) | 12.5 µM (inactive) | > 62.7 µM (inactive) | 75.2 µM (inactive) | > 100 µM (inactive) | 13.6 µM (inactive) | > 100 µM (inactive) | > 100 µM (inactive) | > 100 µM (inactive) | 28.6 µM (inactive) | 12.3 µM (inactive) | > 37.3 µM (inactive) | 38.8 µM (inactive) | > 100 µM (inactive) |
| Cc1ccc(S(=O)(=O)[C@@H](Cl)[C@H]2N=C(Cl)NN=C2c2ccccc2)cc1 | 19.1 µM (inactive) | 15.4 µM (inactive) | 29.5 µM (inactive) | 17.2 µM (inactive) | 26.8 µM (inactive) | 26.4 µM (inactive) | 20 µM (inactive) | 20.6 µM (inactive) | 14.7 µM (inactive) | 18.3 µM (inactive) | 33.7 µM (inactive) | 26.1 µM (inactive) | 13.9 µM (inactive) | 18.1 µM (inactive) | 19.4 µM (inactive) | 22.6 µM (inactive) | 33.8 µM (inactive) | 20.7 µM (inactive) | 15.1 µM (inactive) | 21.5 µM (inactive) |
| C=CC(C1=CC(=O)C(OC)=CC1=O)c1ccccc1 (stereo not given) [4-METHOXYDALBERGIONE] | 16.2 µM (inactive) | 16.3 µM (inactive) | 3.33 µM (inactive) | 19.5 µM (inactive) | 17.1 µM (inactive) | 14.1 µM (inactive) | 16.6 µM (inactive) | 2.16 µM (inactive) | 17.2 µM (inactive) | 16.3 µM (inactive) | 14.3 µM (inactive) | 13.8 µM (inactive) | 14.7 µM (inactive) | 15.9 µM (inactive) | 15.5 µM (inactive) | 15.7 µM (inactive) | 16.7 µM (inactive) | 14.5 µM (inactive) | 14.6 µM (inactive) | 15.6 µM (inactive) |
